# Experimental data as given in ChEMBL document CHEMBL1137108, “Antiviral compounds from traditional Chinese medicines Galla Chinese as inhibitors of HCV NS3 protease” (Bioorg Med Chem Lett, 2004).
# Target: NS3 (Hepatitis C virus, UniProt A3EZJ3)
# Assay: Inhibitory activity against Hepatitis C virus NS3 protease by ELISA
# Set-up: species or system Hepacivirus hominis
# Chain of NS3 (A3EZJ3 whole entry): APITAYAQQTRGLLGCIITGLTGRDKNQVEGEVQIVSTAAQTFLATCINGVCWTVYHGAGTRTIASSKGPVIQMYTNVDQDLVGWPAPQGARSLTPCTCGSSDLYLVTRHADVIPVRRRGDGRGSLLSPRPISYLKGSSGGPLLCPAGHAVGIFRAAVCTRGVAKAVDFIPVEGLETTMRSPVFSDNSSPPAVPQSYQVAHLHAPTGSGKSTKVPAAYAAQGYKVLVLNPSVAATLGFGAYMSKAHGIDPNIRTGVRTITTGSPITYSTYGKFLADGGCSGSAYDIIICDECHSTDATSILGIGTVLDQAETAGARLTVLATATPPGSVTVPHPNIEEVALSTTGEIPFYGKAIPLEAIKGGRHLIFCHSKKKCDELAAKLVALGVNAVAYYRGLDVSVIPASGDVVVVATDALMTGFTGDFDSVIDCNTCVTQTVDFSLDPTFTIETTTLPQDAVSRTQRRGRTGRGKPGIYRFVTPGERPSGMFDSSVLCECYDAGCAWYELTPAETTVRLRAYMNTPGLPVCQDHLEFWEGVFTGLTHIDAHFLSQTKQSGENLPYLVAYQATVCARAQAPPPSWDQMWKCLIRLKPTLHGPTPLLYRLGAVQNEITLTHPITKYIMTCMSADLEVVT
row,IC50 [nM],SMILES
1,750,O=C(OC[C@H]1O[C@H](OC(=O)c2cc(O)c(O)c(O)c2)[C@H](OC(=O)c2cc(O)c(O)c(O)c2)[C@@H](OC(=O)c2cc(O)c(O)c(O)c2)[C@@H]1O)c1cc(O)c(O)c(O)c1
2,1890,O=C(OC[C@H]1O[C@@H](OC(=O)c2cc(O)c(O)c(O)c2)[C@H](OC(=O)c2cc(O)c(O)c(O)c2)[C@@H](O)[C@@H]1O)c1cc(O)c(O)c(O)c1

row,SMILES,IC50 [nM]
1,O=C(OC[C@H]1O[C@@H](OC(=O)c2cc(O)c(O)c(O)c2)[C@H](OC(=O)c2cc(O)c(O)c(O)c2)[C@@H](OC(=O)c2cc(O)c(O)c(O)c2)[C@@H]1OC(=O)c1cc(O)c(O)c(O)c1)c1cc(O)c(O)c(O)c1 [PENTAGALLOYL GLUCOSE],1600
